Assay results published in patent publication US4983328A, “N-(4-(3-aminopropyl)aminobutyl)-2-(ω-gua nidino-fatty-acid-amido(-2-substituted-ethanamide, salt thereof, and process for preparation thereof” (Bristol-Myers Company, priority 1981, dated 1991).
Converted amounts (≈) assume the structure as drawn.

Key:
[1] = acute toxicity in mice (single intraperitoneal administration); details: mouse, in vivo, ip; mice, single i.p.; read-out: LD50 (median lethal dose on single administration)
Method: (§1) In Table 8 median lethal doses (LD50) of typical compounds of this invention are shown, measured in mice upon single intraperitoneal administration, as well as maximum tolerated doses in terms of total dose when a fixed amount per unit body weight was administered intraperitoneally to mice once a day for 6 consecutive days.
*Median lethal dose on single administration.

[2] = system: mouse leukemia L-1210 cells; assay: growth inhibitory activity to cancer cells in vitro (L-1210, 48 hours); assay type: cell-based; details: for inhibition at 2.5 µg/mL: L1210, 2.5 mcg/ml; for inhibition at 5 µg/mL: L1210, 5 mcg/ml; for inhibition at 10 µg/mL: L1210, 10 mcg/ml; for inhibition at 20 µg/mL: L1210, 20 mcg/ml; for inhibition at 40 µg/mL: L1210, 40 mcg/ml; for inhibition at 80 µg/mL: L1210, 80 mcg/ml; for IC50: L1210, L-1210 cells, read-out: 50% inhibitory concentration; for inhibition at 1.25 µg/mL: L1210, 1.25 mcg/ml
Method: DBA/2 mice were implanted with 10^5 mouse leukemia L-1210 cells. The ascites collected asceptically from the mice after 4 days of feeding was washed three times with physiological saline to obtain L-1210 cells, which was then suspended in RPMI 1640 culture medium [G. E. Moore, Journal of the American Medical Association, Vol. 199, 519 (1967); H. J. Morton, In Vitro, Vol. 6, 89 (1970)] to which 10% fetal calf serum and 5 μM 2-mercaptoethanol had been added, and the resulting suspension was diluted to 5×10^4 L-1210 cells per 0.9 ml. A microplate carrying 0.9 ml of the cell suspension and 0.1 ml of the culture medium containing the sample being tested was kept in a carbon dioxide incubator at 37° C. After 48 hours of cultivation, the number of cells was measured by means of a Coulter Counter (Coulter Electronics, Inc., U.S.A.) to obtain the growth inhibition (%)=(1--T/C )×100=[1-(number of grown cells in medium containing sample/(number of grown cells in control medium)]×100. The 50% growth inhibitory concentration was calculated from the values of growth inhibition at varied sample concentrations. The results of tests on typical compounds of this invention for the growth inhibition of L-1210 cells were as shown in Table 6.

[3] = cumulative toxicity in mice (maximum tolerated dose, once a day for 6 consecutive days); details: mouse, in vivo, ip, i.p. once a day for 6 consecutive days, total dose, read-out: Maximum Tolerated Dose (total dose not causing death)
Method: as §1
**Maximum value of the total dose not causing death when a fixed amount
per unit body weight is administered to mice once a day for 6 consecutive

mouse leukemia L-1210 = assay: therapeutic effect on implanted cancer in mice (L-1210, survival over 30 days); assay type: in vivo, mouse (BDF1); details: L1210, ip, 720 h, 6 days; for responders at 1.56 mg/kg / response vs control in vivo at 1.56 mg/kg: 1.56 mg/kg/day i.p.; for responders at 3.13 mg/kg / response vs control in vivo at 3.13 mg/kg: 3.13 mg/kg/day i.p.; for responders at 6.25 mg/kg / response vs control in vivo at 6.25 mg/kg: 6.25 mg/kg/day i.p.; for responders at 12.5 mg/kg / response vs control in vivo at 12.5 mg/kg: 12.5 mg/kg/day i.p.; for responders at 25 mg/kg / response vs control in vivo at 25 mg/kg: 25 mg/kg/day i.p.
Source text: BDF1 strain male mice (5 weeks old) were each inoculated intraperitoneally with 10^5 mouse leukemia L-1210 cells and treated once a day by intraperitoneal injection with a test compound dissolved in physiological saline for 6 consecutive days beginning from the day of inoculation. The mice were then observed for 30 days to determine the rate of prolongation of survival period=100×T/C=100×(average survival days of treated group)/(average survival days of control group).

[4] = chemical stability: retention (%) after heating at 60° C. for 4 hours, by HPLC; assay type: physicochemical
Method: The chemical stability of the present compound was evaluated by determining the retention (%) after heating at 60° C. for 4 hours. In Table 5 are shown the test results together with those for spergualin as reference. The retention was determined by means of high performance liquid chromatography (HPLC). The column was packed with Nucleosil® 5C18. The solvent used for spergualin was a mixture (6:94) of acetonitrile -0.01M sodium pentanesulfonate +0.01M Na2 HPO4 (pH 3), while that for the compounds of this invention was a mixture of acetonitrile -0.005M sodium pentanesulfonate ±0.01M Na2 HPO4 (pH 3). The mixture ratio in the latter case was varied for each particular compound. For instance, a mixing ratio of 10:90 was used for Compound No. 9, while that of 7:93 for Compound No. 22.

[5] = read-out: Growth inhibition (%), (1-T/C) × 100
[6] = read-out: Number of mice survived for 30 days (converted)
[7] = read-out: Prolongation of survival period (%), T/C × 100

SMILES | LD50 [1] [mg/kg] | inhibition at 2.5 µg/mL [2, 5] [%] | inhibition at 5 µg/mL [2, 5] [%] | inhibition at 10 µg/mL [2, 5] [%] | inhibition at 20 µg/mL [2, 5] [%] | inhibition at 40 µg/mL [2, 5] [%] | IC50 [2] [µg/mL] | MTD [3] [mg/kg] | inhibition at 1.25 µg/mL [2, 5] [%] | remaining at 4 h ([4]; pH 2, pH 2) [%] | remaining at 4 h ([4]; pH 4, pH 4) [%] | remaining at 4 h ([4]; pH 6, pH 6) [%] | remaining at 4 h ([4]; pH 8, pH 8) [%] | remaining at 4 h ([4]; pH 9, pH 9) [%] | further results
CCOC(NC(=O)CCCCCCNC(=N)N)C(=O)NCCCCNCCCN (centres unmarked) [Compound 12, N-[4-(3-aminopropyl)aminobutyl]-2-(7-guanidinoheptanamido)-2-ethoxyethanamide] | 12.5 to 25 | 21.5 | 31.1 | 38.4 | 47.3 | 58.6 | 21 (≈ 50.5 µM) | > 75 | – | – | – | – | – | – | inhibition at 80 µg/mL [2, 5]: 73.5%
N=C(N)NCCCCCC=CC(=O)NC(O)C(=O)NCCCCNCCCN (centres unmarked) [Compound 17, N-[4-(3-aminopropyl)aminobutyl]-2-(8-guanidino-2-octenamido)-2-hydroxyethanamide] | 12.5 to 25 | 4.5 | 13.3 | 16.5 | 33.7 | 52.5 | 70 (≈ 175 µM) | > 75 | 2.1 | – | – | – | – | – | –
COC(NC(=O)CCCCCNC(=N)N)C(=O)NCCCCNCCCN (centres unmarked) [Compound 8, N-[4-(3-aminopropyl)aminobutyl]-2-(6-guanidinohexanamido)-2-methoxyethanamide] | 25 to 50 | – | 33.2 | 38.1 | 46.8 | 53.5 | 28 (≈ 72.3 µM) | > 150 | – | – | – | – | – | – | inhibition at 80 µg/mL [2, 5]: 66.3%; inhibition at 160 µg/mL ([2]; L1210, 160 mcg/ml, read-out: Growth inhibition (%), (1-T/C) × 100): 88.2%
COC(NC(=O)CCCNC(=N)N)C(=O)NCCCCNCCCN (centres unmarked) [Compound 7, N-[4-(3-aminopropyl)aminobutyl]-2-(4-guanidinobutanamido)-2-methoxyethanamide] | – | 80.7 | 98.5 | 99.8 | 99.9 | 99.3 | 1.5 (≈ 4.17 µM) | – | 38.7 | – | – | – | – | – | –
N=C(N)NCCCC(=O)NC(O)C(=O)NCCCCNCCCN (centres unmarked) [Compound 1, N-[4-(3-aminopropyl)aminobutyl]-2-(4-guanidinobutanamido)-2-hydroxyethanamide] | > 50 | 52.2 | 89.3 | 101 | 100 | – | 2.4 (≈ 6.95 µM) | > 300 | – | – | – | – | – | – | –
COC(NC(=O)C[C@@H](O)CCCCNC(=N)N)C(=O)NCCCCNCCCN (single isomer, unassigned; (-)) [22 (-), (-)-11-O-methylspergualin] | – | – | – | – | – | – | – | – | – | 79.7 | 100 | 100 | 100 | 97.6 | responders at 1.56 mg/kg (mouse leukemia L-1210; [6]): 0%; response vs control in vivo at 1.56 mg/kg (mouse leukemia L-1210; [7]): 177%; responders at 3.13 mg/kg (mouse leukemia L-1210; [6]): 20%; response vs control in vivo at 3.13 mg/kg (mouse leukemia L-1210; [7]): > 290%; responders at 6.25 mg/kg (mouse leukemia L-1210; [6]): 80%; response vs control in vivo at 6.25 mg/kg (mouse leukemia L-1210; [7]): > 400%; responders at 12.5 mg/kg (mouse leukemia L-1210; [6]): 80%; response vs control in vivo at 12.5 mg/kg (mouse leukemia L-1210; [7]): > 408%; responders at 25 mg/kg (mouse leukemia L-1210; [6]): 100%; response vs control in vivo at 25 mg/kg (mouse leukemia L-1210; [7]): > 423%; remaining at 4 h ([4]; pH 5, pH 5): 100%; remaining at 4 h ([4]; pH 7, pH 7): 100%; remaining at 4 h ([4]; pH 10, pH 10): 95.7%
CCCCOC(NC(=O)CCCCCCNC(=N)N)C(=O)NCCCCNCCCN (centres unmarked) [Compound 13, N-[4-(3-aminopropyl)aminobutyl]-2-(7-guanidinoheptanamido)-2-butoxyethanamide] | – | 21.3 | 24 | 33.2 | 65.7 | 72.5 | 14 (≈ 31.6 µM) | – | 17 | 72.4 | 100 | 100 | 100 | 98 | remaining at 4 h ([4]; pH 3, pH 3): 90.1%; remaining at 4 h ([4]; pH 10, pH 10): 96%
N=C(N)NCCCC[C@H](O)CC(=O)NC(O)C(=O)NCCCCNCCCN (single isomer, unassigned; (-)) [(-)-spergualin, reference compound] | – | – | – | – | – | – | – | – | – | 88.1 | 87.8 | 46.5 | 6.1 | 0 | remaining at 4 h ([4]; pH 3, pH 3): 88%; remaining at 4 h ([4]; pH 5, pH 5): 82.5%; remaining at 4 h ([4]; pH 7, pH 7): 12.6%
COC(NC(=O)CCCCCCNC(=N)N)C(=O)NCCCCNCCCN (single isomer, unassigned; (-)) [Compound 9 (-), (-)-N-[4-(3-aminopropyl)aminobutyl]-2-(7-guanidinoheptanamido)-2-methoxyethanamide] | – | – | – | – | – | – | – | – | – | – | – | – | – | – | responders at 0.1 mg/kg (mouse leukemia L-1210; 0.10 mg/kg/day i.p., read-out: Number of mice survived for 30 days): 0%; response vs control in vivo at 0.1 mg/kg (mouse leukemia L-1210; 0.10 mg/kg/day i.p., read-out: Prolongation of survival period (%), T/C × 100): 110%; responders at 0.2 mg/kg (mouse leukemia L-1210; 0.20 mg/kg/day i.p., read-out: Number of mice survived for 30 days (converted)): 0%; response vs control in vivo at 0.2 mg/kg (mouse leukemia L-1210; 0.20 mg/kg/day i.p., read-out: Prolongation of survival period (%), T/C × 100): 127%; responders at 0.39 mg/kg (mouse leukemia L-1210; 0.39 mg/kg/day i.p., read-out: Number of mice survived for 30 days (converted)): 50%; response vs control in vivo at 0.39 mg/kg (mouse leukemia L-1210; 0.39 mg/kg/day i.p., read-out: Prolongation of survival period (%), T/C × 100): > 342%; responders at 0.78 mg/kg (mouse leukemia L-1210; 0.78 mg/kg/day i.p., read-out: Number of mice survived for 30 days (converted)): 50%; response vs control in vivo at 0.78 mg/kg (mouse leukemia L-1210; 0.78 mg/kg/day i.p., read-out: Prolongation of survival period (%), T/C × 100): > 370%; responders at 1.56 mg/kg (mouse leukemia L-1210; [6]): 50%; response vs control in vivo at 1.56 mg/kg (mouse leukemia L-1210; [7]): > 356%; responders at 3.13 mg/kg (mouse leukemia L-1210; [6]): 75%; response vs control in vivo at 3.13 mg/kg (mouse leukemia L-1210; [7]): > 411%; responders at 6.25 mg/kg (mouse leukemia L-1210; [6]): 25%; response vs control in vivo at 6.25 mg/kg (mouse leukemia L-1210; [7]): > 336%; responders at 12.5 mg/kg (mouse leukemia L-1210; [6]): 50%; response vs control in vivo at 12.5 mg/kg (mouse leukemia L-1210; [7]): > 390%; responders at 25 mg/kg (mouse leukemia L-1210; [6]): 0%; response vs control in vivo at 25 mg/kg (mouse leukemia L-1210; [7]): 0%
COC(NC(=O)C[C@@H](O)CCCCNC(=N)N)C(=O)NCCCCNCCCN (single isomer, unassigned; (+)) [Compound 22 (+), (+)-11-O-methylspergualin] | – | – | – | – | – | – | – | – | – | – | – | – | – | – | Stability [Retention (%)] ([4]; pH 2): 79.7%; Stability [Retention (%)] ([4]; pH 4): 100%; Stability [Retention (%)] ([4]; pH 5): 100%; Stability [Retention (%)] ([4]; pH 6): 100%; Stability [Retention (%)] ([4]; pH 7): 100%; Stability [Retention (%)] ([4]; pH 8): 100%; Stability [Retention (%)] ([4]; pH 9, 240 min): 100%; Stability [Retention (%)] ([4]; pH 10, 240 min): 95.6%
